From patent publication US20050209157A1, “Short bioactive peptides and methods for their use” (priority 2001, published 2005)
Converted amounts (≈) assume the structure as drawn. Like-named read-outs stand apart in the source and are kept apart here. No end group written: not given here.

Legend:
[1] = test system: Escherichia coli 25922; experiment: microbe, parasite or virus in culture; conditions: for MBC: Escherichia coli, 25922, read-out: MBC, Without peptide
Description: Synergy between peptide Shiva-10 (SEQ ID NO:4) and various antimicrobial agents was investigated against Escherichia coli 25922.
Synergy between tetracycline and various peptides was investigated against Escherichia coli 25922 MBC. […] When combined with the peptides, the concentration of tetracycline was held at 1.5 ppm.

[2] = test system: MCF7 line of breast cancer cells
[3] = test system: Pseudomonas aeruginosa ATCC 27853; experiment: Antimicrobial assay I, modified protocol (tryptic soy broth), MBC; conditions: minimum bactericidal concentration, Table 4
[4] = in vitro; type: cell-based, human; conditions: human, human red blood cells
[5] = test system: cancer cell lines; experiment: Anti-cancer assays, MTT, summary over the cancer cell lines; type: cell-based; conditions: X = preferred
[6] = test system: Stapholococcus aureus ATCC 25923; experiment: Antimicrobial assay I, modified protocol (tryptic soy broth), MBC; conditions: minimum bactericidal concentration, Table 4
[7] = test system: Candida albicans ATCC 10231; experiment: Antimicrobial assay I, modified protocol (tryptic soy broth), MFC; conditions: minimum fungicidal concentration, Table 4
[8] = in vitro; conditions: human, WI38 normal lung fibroblast cells, WI-38 LD50, Table 26, valine substitution
[9] = test system: Escherichia coli ATCC 25922; experiment: Antimicrobial assay I, modified protocol (tryptic soy broth), MBC; conditions: minimum bactericidal concentration, Table 4
[10] = test system: fungal; experiment: Presently preferred antifungal peptides, selected from the MIC/MBC data; type: cell-based; conditions: X = preferred
Description: The peptide's “length” is the number of amino acid residues in the sequence.

[11] = test system: WI38; conditions: Table 27
[12] = test system: human red blood cells (RBC); experiment: in vitro; type: cell-based; conditions: Table 27
[13] = test system: Pseudomonas aeruginosa ATCC 9027; experiment: Antimicrobial assay I, MIC by OD measurement; type: cell-based
[14] = pH 7, Table 26, valine substitution, read-out: Hemolysis RBC LD50
[15] = pH 7, Table 27, read-out: Hemolysis (LD50)

Molecule	MBC P. aerug A.27853 [3]	Anti-cancer (preferred peptide) [5]	MBC S. aur A.25923 [6]	MFC Candida A.10231 [7]	MBC E. coli A.25922 [9]	Anti-fungal (preferred peptide) [10]	also measured
NCC[C@H](O)C(=O)N[C@@H]1C[C@H](N)[C@@H](O[C@H]2O[C@H](CN)[C@@H](O)[C@H](O)[C@H]2O)[C@H](O)[C@H]1O[C@H]1O[C@H](CO)[C@@H](O)[C@H](N)[C@H]1O [Amikacin]							MBC [1]: 150 µg/mL; MBC, With peptide ([1]; with 5 μg/mL peptide Shiva-10): 50 µg/mL
C[C@H]1c2cccc(O)c2C(=O)C2=C(O)[C@]3(O)C(=O)C(C(N)=O)=C(O)[C@@H](N(C)C)[C@@H]3[C@@H](O)[C@@H]21 [Doxycycline]							MBC [1]: 5 µg/mL; MBC, With peptide ([1]; with 15 μg/mL peptide Shiva-10): 1 µg/mL
NC[C@@H]1O[C@H](O[C@H]2[C@@H](O)[C@H](O[C@@H]3[C@@H](O)[C@H](N)C[C@H](N)[C@H]3O[C@H]3O[C@H](CN)[C@@H](O)[C@H](O)[C@H]3N)O[C@@H]2CO)[C@H](N)[C@@H](O)[C@@H]1O [Neomycin]							MBC, Without peptide ([1]; agent alone): 100 µg/mL; MBC, With peptide ([1]; with 5 μg/mL peptide Shiva-10): 5 µg/mL
CC/C(=C(\c1ccccc1)c1ccc(OCCN(C)C)cc1)c1ccccc1 [Tamoxifen]							MCF7 LD50 ([2]; agent alone): 20 µg/mL; Active agent LD50 on MCF7 cells: Total conc. ([2]; peptide plus tamoxifen concentration at LD50): 20 µg/mL; Active agent LD50 on MCF7 cells: Tamox. conc. ([2]; tamoxifen concentration at LD50 (peptide with tamoxifen; tamoxifen alone in its own line)): 20 µg/mL
CC(C)C[C@H](NC(=O)[C@H](C)NC(=O)[C@H](CC(C)C)NC(=O)[C@H](C)NC(=O)[C@H](CC(C)C)NC(=O)[C@H](CCCCN)NC(=O)[C@H](C)NC(=O)[C@H](CC(C)C)NC(=O)[C@H](CCCCN)NC(=O)[C@H](CCCCN)NC(=O)[C@H](C)NC(=O)[C@H](CC(C)C)NC(=O)[C@H](CCCCN)NC(=O)[C@H](C)NC(=O)[C@H](CC(C)C)NC(=O)[C@H](CCCCN)NC(=O)[C@H](CCCCN)NC(=O)[C@H](C)NC(=O)[C@@H](N)Cc1ccccc1)C(N)=O [compound 36]	15 µg/mL (≈ 7.36 µM)	X (Preferred anticancer peptides can be selected as having LD50 values of less than or equal to about 25 μg/ml)	10 µg/mL (≈ 4.91 µM)	>40 µg/mL	30 µg/mL (≈ 14.7 µM)		HC50 at 1 h [4, 14]: 12 µg/mL; CC50 at 24 h [8]: 19 µg/mL (≈ 9.32 µM)
FAKALAKLAKKLL-NH2 [compound 92]	25 µg/mL	X (Preferred anticancer peptides can be selected as having LD50 values of less than or equal to about 25 μg/ml)	15 µg/mL	25 µg/mL	40 µg/mL	X (Preferred antifungal peptides can be selected as having MIC or MBC values of less than or equal to about 25 μg/ml)	
FAKKALKALKKL-NH2 [compound 47]	>50 µg/mL	X (Preferred anticancer peptides can be selected as having LD50 values of less than or equal to about 25 μg/ml)	>50 µg/mL	>50 µg/mL	>50 µg/mL		
FAKKLAKKLAKLL-NH2 [compound 75]	30 µg/mL	X (Preferred anticancer peptides can be selected as having LD50 values of less than or equal to about 25 μg/ml)	>55 µg/mL	30 µg/mL	40 µg/mL		
FAKKLAKKLKKLAKKLAKKWKL-NH2 [compound 70]	30 µg/mL	X (Preferred anticancer peptides can be selected as having LD50 values of less than or equal to about 25 μg/ml)	40 µg/mL	>50 µg/mL	40 µg/mL		
FAKKLAKLALKLAKL-NH2 [compound 44]	55 µg/mL	X (Preferred anticancer peptides can be selected as having LD50 values of less than or equal to about 25 μg/ml)	30 µg/mL	>50 µg/mL	10 µg/mL		
FAKLLAKALKKLL-NH2 [compound 55]	10 µg/mL	X (Preferred anticancer peptides can be selected as having LD50 values of less than or equal to about 25 μg/ml)	4 µg/mL	25 µg/mL	4 µg/mL	X (Preferred antifungal peptides can be selected as having MIC or MBC values of less than or equal to about 25 μg/ml)	HC50 at 1 h [4, 14]: 20 µg/mL; CC50 at 24 h [8]: 32 µg/mL
FAKLLAKLAKKLL-NH2 [compound 43]	15 µg/mL	X (Preferred anticancer peptides can be selected as having LD50 values of less than or equal to about 25 μg/ml)	4 µg/mL	15 µg/mL	8 µg/mL	X (Preferred antifungal peptides can be selected as having MIC or MBC values of less than or equal to about 25 μg/ml)	WI38 LD50 [11]: 25 µg/mL; Hemolysis (LD50) [12]: 20 µg/mL; HC50 at 1 h [4, 14]: 20 µg/mL; P. aerug (MIC) [13]: 100 µg/mL; CC50 at 24 h [8]: 25 µg/mL
FAKLLAKLAKKVL-NH2 [compound 124]	40 µg/mL	X (Preferred anticancer peptides can be selected as having LD50 values of less than or equal to about 25 μg/ml)	8 µg/mL	15 µg/mL	10 µg/mL	X (Preferred antifungal peptides can be selected as having MIC or MBC values of less than or equal to about 25 μg/ml)	WI38 LD50 [11]: 21 µg/mL; HC50 at 1 h [4, 14]: 55 µg/mL; HC50 at 1 h [4, 15]: 300 µg/mL; P. aerug (MIC) [13]: 100 µg/mL; CC50 at 24 h [8]: 21 µg/mL
FAKLLALALKLKL-NH2 [compound 94]	>50 µg/mL	X (Preferred anticancer peptides can be selected as having LD50 values of less than or equal to about 25 μg/ml)	>50 µg/mL	>50 µg/mL	>50 µg/mL		
FALAAKALKKLAKKLKKLAKKAL-NH2 [compound 23]	25 µg/mL	X (Preferred anticancer peptides can be selected as having LD50 values of less than or equal to about 25 μg/ml)	30 µg/mL	>50 µg/mL	15 µg/mL		
FALAKLAKKAKAKLKKALKAL-NH2 [compound 26]	>40 µg/mL	X (Preferred anticancer peptides can be selected as having LD50 values of less than or equal to about 25 μg/ml)	>40 µg/mL	>50 µg/mL	>80 µg/mL	X (Preferred antifungal peptides can be selected as having MIC or MBC values of less than or equal to about 25 μg/ml)	
FALALKALKKALKKLKKALKKAL-OH [compound 1]	30 µg/mL	X (Preferred anticancer peptides can be selected as having LD50 values of less than or equal to about 25 μg/ml)	25 µg/mL	>50 µg/mL	25 µg/mL		HC50 at 1 h [4, 14]: 20 µg/mL; CC50 at 24 h [8]: 27 µg/mL
FALALKALKKLKKALKKAL-NH2 [FLAK 06AM (P27; SEQ ID NO: 12)]							MBC, Without tetracycline ([1]; peptide alone): 75 µg/mL; MBC, With tetracycline ([1]; tetracycline held at […]): 25 µg/mL
FALALKALKKLKKALKKAL-OH [27B]	10 µg/mL	X (Preferred anticancer peptides can be selected as having LD50 values of less than or equal to about 25 μg/ml)	>40 µg/mL	>40 µg/mL	40 µg/mL	X (Preferred antifungal peptides can be selected as having MIC or MBC values of less than or equal to about 25 μg/ml)	
FALALKKALKALKKAL-NH2 [compound 34]	15 µg/mL	X (Preferred anticancer peptides can be selected as having LD50 values of less than or equal to about 25 μg/ml)	40 µg/mL	>40 µg/mL	15 µg/mL	X (Preferred antifungal peptides can be selected as having MIC or MBC values of less than or equal to about 25 μg/ml)	
VAKLLAKLAKKLL-NH2 [compound 48]	25 µg/mL	X (Preferred anticancer peptides can be selected as having LD50 values of less than or equal to about 25 μg/ml)	4 µg/mL	10 µg/mL	8 µg/mL	X (Preferred antifungal peptides can be selected as having MIC or MBC values of less than or equal to about 25 μg/ml)	WI38 LD50 [11]: 160 µg/mL; HC50 at 1 h [4, 14]: 130 µg/mL; HC50 at 1 h [4, 15]: 200 µg/mL; P. aerug (MIC) [13]: 5 µg/mL; CC50 at 24 h [8]: 160 µg/mL
